Assays:
Format in all cases: biochemical
Chlamydomonas HPPD1 = Chlamydomonas HPPD1 (Chlamydomonas reinhardtii, UniProt A0A2K3DET7); assay: HPPD activity assay, wildtype enzyme; settings: calculated from IC50 with Cheng-Prusoff equation, read-out: dissociation constant Ki
Experimental: (§1) HPPD produces homogentisic acid and CO2 from 4-hydroxyphenylpyruvate (4-HPP) and O2. The activity assay for HPPD is based on the analysis of homogentisic acid by reversed phase HPLC.
(§2) The assay mixture can contain 150 mM potassium phosphate buffer pH 7.0, 50 mM L-ascorbic acid, 1 μM FeSO4 and 7 μg of purified enzyme in a total volume of 1 ml.
(§3) Inhibitors are dissolved in DMSO (dimethylsulfoxide) to a concentration of 20 mM or 0.5 mM, respectively. From this stock solution serial five-fold dilutions are prepared in DMSO, which are used in the assay. The respective inhibitor solution accounts for 1% of the assay volume.
(§4) After a preincubation of 30 min the reaction is started by adding 4-HPP to a final concentration of 0.1 mM. The reaction is allowed to proceed for 120 min at room temperature. The reaction is stopped by addition of 100 μl of 4.5 M phosphoric acid.
(§5) Activities are normalized by setting the uninhibited enzyme activity to 100%. IC50 values are calculated using non-linear regression.
The assay mixture can contain 150 mM potassium phosphate buffer pH 7.0, 50 mM L-ascorbic acid, 100 μM Catalase (Sigma-Aldrich), 1 μM FeSO4 and 0.2 units of purified HPPD enzyme in a total volume of 505 μl. […]
(§6) HGA is detected electrochemically at 750 mV (mode: DC; polarity: positive) and quantified by integrating peak areas (Empower software; Waters).
Inhibitors are dissolved in DMSO (dimethylsulfoxide) to a concentration of 0.5 mM. […] IC50 values are calculated using non-linear regression.
Using methods which are described in the above examples or well known in the art, purified, recombinant wildtype HPPD enzymes are characterized with respect to their kinetic properties and sensitivity towards HPPD inhibiting herbicides. Apparent michaelis constants (Km) and maximal reaction velocities (Vmax) are calculated by non-linear regression with the software GraphPad Prism 5 (GraphPad Software, La Jolla, USA) using a substrate inhibition model. […] Weighted means (by standard error) of Km and IC50 values are calculated from at least three independent experiments.

Chlamydomonas HPPD2 = Chlamydomonas HPPD2 (Chlamydomonas reinhardtii, UniProt A0A2K3DET5); assay: HPPD activity assay, wildtype enzyme; settings: calculated from IC50 with Cheng-Prusoff equation, read-out: dissociation constant Ki
Experimental: as §1, §2
Inhibitors are dissolved in DMSO (dimethylsulfoxide) to a concentration of 20 mM or 0.5 mM, respectively. From this stock solution serial five-fold dilutions are prepared in DMSO, which are used in the assay. The respective inhibitor solution accounts for 1% of the assay volume. […]
(§7) 10 μl of the eluate is analyzed by reversed phase HPLC on a Symmetry® C18 column (particle size 3.5 μm, dimensions 4.6×100 mm; Waters) using 5 mM H3PO4/15% ethanol (w/w) as an eluent.
(§8) Homogentisic acid is detected electrochemically and quantified by measuring peak areas (Empower software; Waters).
Activities are normalized by setting the uninhibited enzyme activity to 100%. IC50 values are calculated using non-linear regression. […]
(§9) 5 μl of the cleared sample is analyzed on an Atlantis T3 column (particle size 3 μm, dimensions 3×50 mm; Waters) by isocratic elution using 90% 10 mM NaH2PO4 pH 2.2, 10% methanol (v/v).
HGA is detected electrochemically at 750 mV (mode: DC; polarity: positive) and quantified by integrating peak areas (Empower software; Waters). […]

[1] = molecular target: T1, Arabidopsis HPPD variant I393L (Arabidopsis thaliana, UniProt P93836, I393L); assay: HPPD activity assay, mutant enzyme
T1 construct: His6 (N); made in house; host or cells: E. coli BL21 (DE3)
Experimental: as §1, §2
as §3, with “volume. Thus, final inhibitor concentrations range from 200 μM to 2.5 nM or from 5 μM to 63 pM, respectively.” for “volume.”
as §4
(§10) The sample is extracted on an Oasis® HLB cartridge 3 cc/60 mg (Waters) that was preequilibrated with 63 mM phosphoric acid. L-ascorbic acid is washed out with 3 ml of 63 mM phosphoric acid. Homogentisate is eluted with 1 ml of a 1:1 mixture of 63 mM phosphoric acid and methanol (w/w).
as §7, §8, §5
(§11) The assay mixture can contain 150 mM potassium phosphate buffer pH 7.0, 50 mM L-ascorbic acid, 100 μM Catalase (Sigma-Aldrich), 1 μM FeSO4 and 0.2 units of purified HPPD enzyme in a total volume of 505 μl. 1 unit is defined as the amount of enzyme that is required to produce 1 nmol of HGA per minute at 20° C.
(§12) After a preincubation of 30 min the reaction is started by adding 4-HPP to a final concentration of 0.05 mM. The reaction is allowed to proceed for 45 min at room temperature. The reaction is stopped by the addition of 50 μl of 4.5 M phosphoric acid. The sample is filtered using a […] pore size PVDF filtration device.
as §9, §6
(§13) Inhibitors are dissolved in DMSO (dimethylsulfoxide) to a concentration of 0.5 mM. From this stock solution serial five-fold dilutions are prepared in DMSO, which are used in the assay. The respective inhibitor solution accounts for 1% of the assay volume. Thus, final inhibitor concentrations range from 5 μM to 320 pM, respectively. Activities are normalized by setting the uninhibited enzyme activity to 100%. IC50 values are calculated using non-linear regression.
(§14) Purified, mutant HPPD enzymes are obtained by the methods described above. Dose response and kinetic measurements are carried out using the described HPPD activity assay. Apparent michaelis constants (Km) and maximal reaction velocities (Vmax) are calculated by non-linear regression with the software GraphPad Prism 5 (GraphPad Software, La Jolla, USA) using a substrate inhibition model. Apparent kcat values are calculated from Vmax assuming 100% purity of the enzyme preparation. Weighted means (by standard error) of Km and IC50 values are calculated from at least three independent experiments. The Cheng-Prusoff equation for competitive inhibition (Cheng, Y. C.; Prusoff, W. H. Biochem Pharmacol 1973, 22, 3099-3108) is used to calculate dissociation constants (Ki). Examples of the data obtained are depicted in Table 13.

[2] = molecular target: T2, Arabidopsis HPPD variant L385V (Arabidopsis thaliana, UniProt P93836, L385V); assay: HPPD activity assay, mutant enzyme
T2 construct: His6 (N); made in house; host or cells: E. coli BL21 (DE3)
Experimental: as §1, §2
as §3, with “volume. Thus, final inhibitor concentrations range from 200 μM to 2.5 nM or from 5 μM to 63 pM, respectively.” for “volume.”
as §4, §10, §7, §8, §5, §11, §12, §9, §6, §13, §14

[3] = molecular target: T3, Arabidopsis HPPD variant M335N (Arabidopsis thaliana, UniProt P93836, M335N); assay: HPPD activity assay, mutant enzyme
T3 construct: His6 (N); made in house; host or cells: E. coli BL21 (DE3)
Experimental: as §1, §2
as §3, with “volume. Thus, final inhibitor concentrations range from 200 μM to 2.5 nM or from 5 μM to 63 pM, respectively.” for “volume.”
as §4, §10, §7, §8, §5, §11, §12, §9, §6, §13, §14

[4] = molecular target: T4, Arabidopsis HPPD variant M335Q (Arabidopsis thaliana, UniProt P93836, M335Q); assay: HPPD activity assay, mutant enzyme
T4 construct: His6 (N); made in house; host or cells: E. coli BL21 (DE3)
Experimental: as §1, §2
as §3, with “volume. Thus, final inhibitor concentrations range from 200 μM to 2.5 nM or from 5 μM to 63 pM, respectively.” for “volume.”
as §4, §10, §7, §8, §5, §11, §12, §9, §6, §13, §14

[5] = molecular target: T5, Arabidopsis HPPD variant P336A E363Q (Arabidopsis thaliana, UniProt P93836, E363Q/P336A); assay: HPPD activity assay, mutant enzyme
T5 construct: His6 (N); made in house; host or cells: E. coli BL21 (DE3)
Experimental: as §1, §2
as §3, with “volume. Thus, final inhibitor concentrations range from 200 μM to 2.5 nM or from 5 μM to 63 pM, respectively.” for “volume.”
as §4, §10, §7, §8, §5, §11, §12, §9, §6, §13, §14

Chlamydomonas HPPD1, sequence (A0A2K3DET7 entry or part of it): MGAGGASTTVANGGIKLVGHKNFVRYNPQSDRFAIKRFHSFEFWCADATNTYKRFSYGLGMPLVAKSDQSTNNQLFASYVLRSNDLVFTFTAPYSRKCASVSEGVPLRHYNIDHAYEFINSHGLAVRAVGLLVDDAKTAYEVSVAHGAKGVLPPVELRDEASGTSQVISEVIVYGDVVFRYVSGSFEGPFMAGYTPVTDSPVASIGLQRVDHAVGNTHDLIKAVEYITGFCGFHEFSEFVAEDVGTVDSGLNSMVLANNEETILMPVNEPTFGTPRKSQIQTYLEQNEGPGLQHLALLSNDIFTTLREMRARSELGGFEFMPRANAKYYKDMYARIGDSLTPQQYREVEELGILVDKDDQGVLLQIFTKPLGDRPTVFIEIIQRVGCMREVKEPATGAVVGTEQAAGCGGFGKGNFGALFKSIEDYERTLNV
T3 sequence (P93836 whole entry M335N): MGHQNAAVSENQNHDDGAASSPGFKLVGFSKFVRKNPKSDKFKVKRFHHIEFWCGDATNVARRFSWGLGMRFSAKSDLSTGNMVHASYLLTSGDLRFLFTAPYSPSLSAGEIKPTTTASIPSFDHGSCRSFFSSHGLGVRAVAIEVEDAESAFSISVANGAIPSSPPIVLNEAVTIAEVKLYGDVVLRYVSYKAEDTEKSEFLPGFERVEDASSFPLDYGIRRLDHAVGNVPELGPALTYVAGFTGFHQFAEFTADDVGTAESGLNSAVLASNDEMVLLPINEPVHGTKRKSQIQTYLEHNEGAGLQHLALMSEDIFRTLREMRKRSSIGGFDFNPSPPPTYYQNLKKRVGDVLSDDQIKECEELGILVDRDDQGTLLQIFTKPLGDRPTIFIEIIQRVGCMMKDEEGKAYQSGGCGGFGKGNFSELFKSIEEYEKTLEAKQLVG
T1 sequence (P93836 whole entry I393L): as the sequence (P93836 whole entry M335N) above, with N335M, I393L counted along it
T4 sequence (P93836 whole entry M335Q): as the sequence (P93836 whole entry M335N) above, with N335Q counted along it
T5 sequence (P93836 whole entry P336A/E363Q): as the sequence (P93836 whole entry M335N) above, with N335M, P336A, E363Q counted along it
Chlamydomonas HPPD2, sequence (A0A2K3DET5 entry or part of it): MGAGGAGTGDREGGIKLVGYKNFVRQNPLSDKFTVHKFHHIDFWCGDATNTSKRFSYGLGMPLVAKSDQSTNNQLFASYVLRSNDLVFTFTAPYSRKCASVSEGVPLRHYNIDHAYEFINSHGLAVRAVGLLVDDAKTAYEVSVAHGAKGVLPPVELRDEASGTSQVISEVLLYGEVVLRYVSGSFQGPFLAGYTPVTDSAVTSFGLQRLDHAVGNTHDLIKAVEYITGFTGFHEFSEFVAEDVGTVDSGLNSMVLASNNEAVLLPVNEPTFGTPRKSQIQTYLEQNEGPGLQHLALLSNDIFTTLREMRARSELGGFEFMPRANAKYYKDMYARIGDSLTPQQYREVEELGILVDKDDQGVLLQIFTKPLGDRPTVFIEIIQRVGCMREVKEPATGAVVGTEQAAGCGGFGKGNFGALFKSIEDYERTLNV
T2 sequence (P93836 whole entry L385V): as the sequence (P93836 whole entry M335N) above, with N335M, L385V counted along it

CC1=NOC(c2c(Cl)ccc(C3=C(O)c4ncccc4N(CC(F)F)S3(=O)=O)c2Cl)C1 (centres unmarked) [Inhibitor 1, 3-[2,4-dichloro-3-(3-methyl-4,5-dihydroisoxazol-5-yl)phenyl]-1-(2,2-difluoroethyl)-2,2-dioxo-pyrido[3,2-c]thiazin-4-ol] showed a Ki (Chlamydomonas HPPD1) of 29 nM, a Ki (Chlamydomonas HPPD2) of 8 nM and a Ki [1] of 21 nM. For the same compound, the Ki [2] was 19 nM, the Ki [3] was 20 nM and the Ki [4] was 24 nM. It also gave a Ki [5] of 13 nM.

Cc1c(C(=O)c2cnn(C)c2O)ccc(S(C)(=O)=O)c1C1=NOCC1 [Topramezone, reference compound] showed a Ki (Chlamydomonas HPPD1) of 38 nM.

Source: patent US20130053243A1, “PLANTS HAVING INCREASED TOLERANCE TO HERBICIDES” (BASF SE, priority 2010, published 2013)
